Data reported in ChEMBL document CHEMBL1137407, “Identification and optimization of anthranilic sulfonamides as novel, selective cholecystokinin-2 receptor antagonists” (J Med Chem, 2006).

What was measured:
[1] = target: T1, Cholecystokinin receptor type A (Homo sapiens, UniProt P32238)
T1 sequence (P32238 whole entry): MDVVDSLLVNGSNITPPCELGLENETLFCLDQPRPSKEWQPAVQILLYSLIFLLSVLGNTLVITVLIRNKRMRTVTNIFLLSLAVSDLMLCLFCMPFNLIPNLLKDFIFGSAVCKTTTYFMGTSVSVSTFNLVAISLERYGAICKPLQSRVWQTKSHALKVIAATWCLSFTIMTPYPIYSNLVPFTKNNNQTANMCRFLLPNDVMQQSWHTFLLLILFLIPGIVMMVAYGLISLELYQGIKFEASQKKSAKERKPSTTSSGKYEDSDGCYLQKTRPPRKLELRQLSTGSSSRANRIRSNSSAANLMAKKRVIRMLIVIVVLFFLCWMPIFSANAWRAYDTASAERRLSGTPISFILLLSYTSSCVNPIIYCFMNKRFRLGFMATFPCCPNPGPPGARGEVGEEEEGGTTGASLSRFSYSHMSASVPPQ
Description: Displacement of [125I]CCK-8S from human CCK1R

[2] = target: T2, Gastrin/cholecystokinin type B receptor (Homo sapiens, UniProt P32239)
T2 sequence (P32239 whole entry): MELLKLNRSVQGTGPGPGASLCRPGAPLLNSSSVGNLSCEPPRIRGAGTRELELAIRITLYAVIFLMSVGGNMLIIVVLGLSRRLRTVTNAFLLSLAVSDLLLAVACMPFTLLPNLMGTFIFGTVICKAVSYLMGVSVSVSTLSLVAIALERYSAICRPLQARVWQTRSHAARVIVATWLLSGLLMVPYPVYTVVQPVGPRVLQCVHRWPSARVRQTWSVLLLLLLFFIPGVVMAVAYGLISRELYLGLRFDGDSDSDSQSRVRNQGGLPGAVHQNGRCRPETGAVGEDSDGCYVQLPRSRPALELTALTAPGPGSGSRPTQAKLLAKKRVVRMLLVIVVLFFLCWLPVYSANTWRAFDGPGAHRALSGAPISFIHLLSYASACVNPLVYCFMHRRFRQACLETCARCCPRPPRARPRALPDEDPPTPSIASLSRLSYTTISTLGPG
Description: Displacement of [125I]CCK-8S from human CCK2R

[3] = Stability in human liver microsome after 30 mins; format: ADME; conditions: liver microsomes, read-out: Stability
[4] = Stability in rat liver microsome after 30 mins; format: ADME; conditions: liver microsomes, read-out: Stability

| SMILES | Ki ([1]; read-out: Ki) | Ki ([2]; read-out: Log Ki (converted)) | also measured |
| --- | --- | --- | --- |
| O=C(c1ccc(Br)cc1NS(=O)(=O)c1cccc2ccccc12)N1CCCCC1 | > 10 µM | – | Ki ([2]; read-out: Ki): > 10 µM |
| COc1ccc(C(=O)N2CCCCC2)c(NS(=O)(=O)c2cccc3nsnc23)c1 | > 10 µM | 0.631 µM | – |
| O=C(c1ccc(CS)cc1NS(=O)(=O)c1cccc2nsnc12)N1CCCCC1 | > 10 µM | 0.1 µM | – |
| O=C(NCc1ccccc1)c1ccc(Cl)cc1NS(=O)(=O)c1cccc2nsnc12 | > 10 µM | 2.51 µM | – |
| O=C(Nc1cc(Br)ccc1C(=O)N1CCCCC1)c1cccc2nsnc12 | > 10 µM | – | Ki ([2]; read-out: Ki): > 10 µM |
| O=C(Nc1ccc(C(=O)N2CCCCC2)c(NS(=O)(=O)c2cccc3nsnc23)c1)c1ccccc1 | – | 7.94 µM | – |
| O=C(c1cc2ccccc2cc1NS(=O)(=O)c1cccc2nsnc12)N1CCCCC1 | > 10 µM | 0.126 µM | – |
| CC1CN(C(=O)c2ccc(Cl)cc2NS(=O)(=O)c2cccc3nsnc23)CCN1 (stereo unspecified) | > 10 µM | – | Ki ([2]; read-out: Ki): > 10 µM |
| O=C(c1cc(Br)c(Br)cc1NS(=O)(=O)c1cccc2nsnc12)N1CCCCC1 | > 10 µM | 0.01 µM | – |
| O=C(O)[C@@H]1CCCN1C(=O)c1ccc(Cl)cc1NS(=O)(=O)c1cccc2nsnc12 | > 10 µM | – | Ki ([2]; read-out: Ki): > 10 µM |
| O=C(c1ccc(Cl)cc1NS(=O)(=O)c1cccc2cccnc12)N1CCCCC1 | > 10 µM | – | Ki ([2]; read-out: Ki): > 10 µM |
| O=C(Nc1ccccc1C(=O)NC(Cc1ccccc1)C(=O)O)c1cc2ccccc2[nH]1 (stereo unspecified) | – | – | Ki ([1]; read-out: Log Ki (converted)): 0.0316 µM; Ki ([2]; read-out: Ki): > 10 µM |
| O=C(c1ccc(Cl)cc1NS(=O)(=O)c1cccc2nsnc12)N1CCCC1 | > 10 µM | 0.251 µM | – |
| CC(C)c1ccc(C(=O)N2CCCCC2)c(NS(=O)(=O)c2cccc3nsnc23)c1 | > 10 µM | 0.316 µM | – |
| O=C(c1ccc(Cl)cc1NS(=O)(=O)c1cccc2nsnc12)N1CCC(N2CCCCC2)CC1 | > 10 µM | – | Ki ([2]; read-out: Ki): > 10 µM |
| CCc1ccc(C(=O)N2CCCCC2)c(NS(=O)(=O)c2cccc3nsnc23)c1 | > 10 µM | 0.251 µM | – |
| O=C(c1ccc(Br)cc1NS(=O)(=O)c1ccc2nsnc2c1)N1CCCCC1 | > 10 µM | > 10 µM | – |
| O=C(c1ccc(Cl)cc1NS(=O)(=O)c1cccc2nsnc12)N1CCCCCC1 | > 10 µM | 0.0631 µM | remaining at 0.5 h [3]: 11%; remaining at 0.5 h [4]: 2% |
| O=C(c1ccc(Cl)cc1NS(=O)(=O)c1cccc2nsnc12)N1CCc2ccccc2C1 | > 10 µM | 1 µM | – |
| CN(Cc1ccccc1)C(=O)c1ccc(Cl)cc1NS(=O)(=O)c1cccc2nsnc12 | > 10 µM | 0.0316 µM | remaining at 0.5 h [3]: 2.2% |
| Cc1ccc(S(=O)(=O)Nc2cc(Br)ccc2C(=O)N2CCCCC2)c2nsnc12 | > 10 µM | 0.1 µM | – |
| O=C(c1ccccc1NS(=O)(=O)c1cc2ccccc2[nH]1)N1CCCCC1 | – | – | Ki ([1]; read-out: Log Ki (converted)): 7.94 µM; Ki ([2]; read-out: Ki): > 10 µM |
| O=C(c1ccc(Cl)cc1NS(=O)(=O)c1cccc2nsnc12)N1CCSC1 | > 10 µM | – | – |
| O=C(c1ccc(-n2cccc2)cc1NS(=O)(=O)c1cccc2nsnc12)N1CCCCC1 | > 10 µM | 0.501 µM | – |

| SMILES | Ki ([1]; read-out: Ki) | Ki ([2]; read-out: Log Ki (converted)) | also measured |
| --- | --- | --- | --- |
| O=C(c1cc(Cl)c(Cl)cc1NS(=O)(=O)c1cccc2nsnc12)N1CCCCC1 | > 10 µM | – | remaining at 0.5 h [3]: 8%; remaining at 0.5 h [4]: 8% |
| C[C@H]1COC[C@H](C)N1C(=O)c1ccc(Cl)cc1NS(=O)(=O)c1cccc2nccnc12 | > 10 µM | 5.01 µM | – |
| CN(c1cc(Br)ccc1C(=O)N1CCCCC1)S(=O)(=O)c1cccc2nsnc12 | > 10 µM | – | Ki ([2]; read-out: Ki): > 10 µM |
| O=C(c1ccc(I)cc1NS(=O)(=O)c1cccc2nsnc12)N1CCCCC1 | > 10 µM | 0.00501 µM | – |
| O=C(O)c1ccc(C(=O)N2CCCCC2)c(NS(=O)(=O)c2cccc3nsnc23)c1 | > 10 µM | – | Ki ([2]; read-out: Ki): > 10 µM |
| C[C@@H]1COC[C@H](C)N1C(=O)c1ccc(Cl)cc1NS(=O)(=O)c1cccc2nccnc12 | > 10 µM | 0.631 µM | – |
| O=C(N[C@@H](Cc1ccccc1)C(=O)O)c1ccc(Br)cc1NS(=O)(=O)c1cc2ccccc2[nH]1 | – | 2 µM | – |
| O=C(c1ccc(I)cc1NS(=O)(=O)c1cccc2nsnc12)N1CCOCC1 | > 10 µM | – | – |
| O=C(c1cccc(Cl)c1NS(=O)(=O)c1cccc2nsnc12)N1CCCCC1 | > 10 µM | – | Ki ([2]; read-out: Ki): > 10 µM |
| Cc1ccc2nsnc2c1S(=O)(=O)Nc1cc(Br)ccc1C(=O)N1CCCCC1 | > 10 µM | 0.1 µM | – |
| O=C(c1ccc(Br)cc1NS(=O)(=O)c1cccc2cnccc12)N1CCCCC1 | > 10 µM | – | Ki ([2]; read-out: Ki): > 10 µM |
| O=C(c1ccc(Cl)cc1NS(=O)(=O)c1cccc2nsnc12)N1CCC(c2ccccc2)CC1 | > 10 µM | 0.0631 µM | – |
| O=C(c1ccc(Cl)c(NS(=O)(=O)c2cccc3nsnc23)c1)N1CCCCC1 | > 10 µM | – | Ki ([2]; read-out: Ki): > 10 µM |
| COc1cc(C(=O)N2CCCCC2)c(NS(=O)(=O)c2cccc3nsnc23)cc1Cl | > 10 µM | 0.501 µM | – |
| O=C(c1ccc([N+](=O)[O-])cc1NS(=O)(=O)c1cccc2nsnc12)N1CCCCC1 | > 10 µM | – | – |
| CC1CC(C)CN(C(=O)c2ccc(Cl)cc2NS(=O)(=O)c2cccc3nsnc23)C1 (stereo unspecified) | > 10 µM | 1.26 µM | – |
| O=C(c1ccc(NCc2ccccc2)cc1NS(=O)(=O)c1cccc2nsnc12)N1CCCCC1 | > 10 µM | 1.26 µM | – |
| C[C@@H]1C=C[C@H](C)N1C(=O)c1ccc(Cl)cc1NS(=O)(=O)c1cccc2nsnc12 | > 10 µM | 0.2 µM | – |
| Nc1ccc(C(=O)N2CCCCC2)c(NS(=O)(=O)c2cccc3nsnc23)c1 | > 10 µM | 7.94 µM | – |
| O=C(c1ccccc1NS(=O)(=O)c1cccc2nsnc12)N1CCOCC1 | > 10 µM | – | Ki ([2]; read-out: Ki): > 10 µM |
| O=C(c1ccc(F)cc1NS(=O)(=O)c1cccc2nsnc12)N1CCCCC1 | – | 1 µM | – |
| O=C(c1ccc(-c2ccco2)cc1NS(=O)(=O)c1cccc2nsnc12)N1CCCCC1 | > 10 µM | 0.126 µM | – |
| CC(=O)Nc1ccc(C(=O)N2CCCCC2)c(NS(=O)(=O)c2cccc3nsnc23)c1 | > 10 µM | – | Ki ([2]; read-out: Ki): > 10 µM |
| O=C(c1c(Cl)cccc1NS(=O)(=O)c1cccc2nsnc12)N1CCCCC1 | > 10 µM | 1 µM | – |

| SMILES | Ki ([1]; read-out: Ki) | Ki ([2]; read-out: Log Ki (converted)) | also measured |
| --- | --- | --- | --- |
| O=C(c1ccccc1NS(=O)(=O)c1cccc2nsnc12)N1CCCCC1 | – | – | Ki ([2]; read-out: Ki): > 10 µM |
| O=C(c1ccc(Cl)cc1NS(=O)(=O)c1cccc2nsnc12)N1CCOCC1 | > 10 µM | 0.316 µM | – |
| O=C(c1ccc(C(F)(F)F)cc1NS(=O)(=O)c1cccc2nsnc12)N1CCCCC1 | > 10 µM | 0.0631 µM | – |
| O=C(c1ccc(Cl)cc1NS(=O)(=O)c1cccc2nsnc12)N1CCC(CO)CC1 | > 10 µM | 1.26 µM | – |
| Cc1cccc(C(=O)N2CCCCC2)c1NS(=O)(=O)c1cccc2nsnc12 | > 10 µM | – | Ki ([2]; read-out: Ki): > 10 µM |
| O=C(c1ccc(Cl)cc1NS(=O)(=O)c1cccc2nccnc12)N1CCOCC1 | > 10 µM | – | – |
| O=C(N[C@@H](Cc1ccccc1)C(=O)O)c1ccccc1NS(=O)(=O)c1cc2ccccc2[nH]1 | – | 5.01 µM | – |
| CC1CCCCN1C(=O)c1ccc(Cl)cc1NS(=O)(=O)c1cccc2nsnc12 (stereo unspecified) | > 10 µM | – | remaining at 0.5 h [3]: 14%; remaining at 0.5 h [4]: 3% |
| COc1cc(NS(=O)(=O)c2cccc3nsnc23)c(C(=O)N2CCCCC2)cc1OC | > 10 µM | 2.51 µM | – |
| O=C(c1ccc(-c2ccccc2)cc1NS(=O)(=O)c1cccc2nsnc12)N1CCCCC1 | > 10 µM | 0.158 µM | – |
| O=C(c1ccc(OC2CCCC2)cc1NS(=O)(=O)c1cccc2nsnc12)N1CCCCC1 | > 10 µM | 0.158 µM | – |
| O=C(c1ccc(Br)cc1NS(=O)(=O)c1cccc2ncccc12)N1CCCCC1 | > 10 µM | 0.794 µM | – |
| O=C(c1ccc(Br)cc1NS(=O)(=O)c1c(F)ccc2nsnc12)N1CCCCC1 | > 10 µM | 0.0398 µM | – |
| O=C(c1ccc(Cl)cc1NS(=O)(=O)c1cccc2nsnc12)N1CCC[C@H]1CN1CCCC1 | > 10 µM | – | Ki ([2]; read-out: Ki): > 10 µM |
| O=C(c1cc(Br)ccc1NS(=O)(=O)c1cccc2nsnc12)N1CCCCC1 | – | 0.794 µM | – |
| O=C(c1ccc(Cl)cc1NS(=O)(=O)c1cccc2nsnc12)N1CCC1 | > 10 µM | 1.58 µM | – |
| CN(C)c1ccc(C(=O)N2CCCCC2)c(NS(=O)(=O)c2cccc3nsnc23)c1 | > 10 µM | 0.316 µM | – |
| O=C(c1ccc(Br)cc1NS(=O)(=O)c1cccc2nccnc12)N1CCOCC1 | > 10 µM | – | – |
| O=C(c1ccc(Br)cc1NS(=O)(=O)c1ccc(Br)c2nsnc12)N1CCCCC1 | > 10 µM | 0.158 µM | – |
| O=C(c1ccc(F)cc1NS(=O)(=O)c1cccc2nccnc12)N1CCOCC1 | > 10 µM | 3.98 µM | – |
| O=C(c1ccc(F)cc1NS(=O)(=O)c1cccc2nsnc12)N1CCOCC1 | > 10 µM | 3.98 µM | – |
| O=C(c1ccc(Br)cc1NS(=O)(=O)c1cccc2nsnc12)N1CCOCC1 | > 10 µM | 0.126 µM | – |
| CN1CCN(C(=O)c2ccc(Cl)cc2NS(=O)(=O)c2cccc3nsnc23)CC1 | > 10 µM | 2.51 µM | – |
